# Laboratory results published in US20090297510A1, “INHIBITION OF CALPAIN REDUCES ALLERGIC INFLAMMATION” (priority 2008, published 2009).
# Key:
# Balb/c mice = test: FcεRI-mediated passive cutaneous anaphylaxis, Evans blue dye extravasation in ear; assay type: in vivo; details: 0.965 mg/mouse intraperitoneal, 1 h before DNP-BSA challenge i.v.; ears collected 30 min later; control DMSO; FIG. 2
# Procedure: In particular, mice were injected locally in the ear tissue with anti-dinitrophenol (DNP) IgE (20 ng/mouse) a day before. Mice in the treatment group received 0.965 mg/mouse of calpain inhibitor III via intraperitoneal injection. Control group received diluent dimethyl sulfoxide (DMSO) only. One hour later, animals were injected with 100 μg of DNP-BSA in 200 μl 0.5% Evan blue dye via tail vein injection. Thirty minutes later, ear tissues were collected. Evan blue dyes were extracted and measure at 620 nm.
# To examine the role of calpain in FcεRI-mediated passive cutaneous anaphylaxis in mice, dorsal sides of the ears of Balb/c mice were injected intradermally with 20 ng anti-DNP IgE (both left ears) in a 20 μl volume using a 30-gauge needle. After 24 h mice in the treatment group received 0.965 mg/mouse of calpain inhibitor III via intraperitoneal injection. Control group received diluent dimethyl sulfoxide (DMSO) only. […] For quantitation of Evans blue dye extravasation as a measure of anaphylaxis associated vascular hyperpermeability, 8-mm skin specimens were removed from the ears of mice, minced in 2 ml formamide, and incubated at 80° C. for 2 h in water bath to extract the dye. The absorbance of the extracted dye was read at 620 nm.
# [1] = test system: JNK phosphorylation in mast cells; test: Western blot of IgE-dependent kinase phosphorylation in mast cell lysates; assay type: cell-based, mouse; details: BMMC, inhibitor or DMSO 1 hour, then TNP-BSA 10 ng/ml for various times, FIG. 4
# Procedure: In particular, mouse bone marrow-derived mast cells (60 million) were sensitized overnight with 90 ml fresh culture medium and 30 ml TIB141-conditioned medium enriched in IgE directed against trinitrophenyl (TNP). Cells were then washed twice with RPMI 1640 and resuspended in 10% FBS-RPMI 1640 at 1 million cells/ml. Five ml of cells were aliquoted for each treatment. Calpain inhibitor 3 (CI3) or DMSO was added and to the sample and incubated at 37° C. in a 5% CO2 incubator for 1 hour. Then, TNP-BSA (10 ng/ml) was added to stimulate mast cells for various times as indicated. After incubation, cells were transferred to a 50 ml tube, and centrifuged at 500×g for 5 min at 4° C. Supernatants were discarded and cell pellets were kept on ice. Cell pellets were lysed with 30 μl ice-cold RIPA lysis buffer for each condition. Lysates were transferred to 1.5 ml tubes, vortexed for 10 seconds at the highest setting, pipetted 20 times, vortexed for 10 seconds again, and incubated for 20 minutes on ice. Subsequently, lysates were centrifuged at 15,000×g for 10 minutes in a cold room. Supernatants were then transferred to new tubes and used for Western blotting with antibodies to phospho-IκB, total IκB, phospho-p38, total p38, phospho-JNK, total JNK, phospho-ERK, total ERK and actin. […]
substance,measurement,setting,value
calpain inhibitor III,"IgE-dependent passive cutaneous anaphylaxis (Evans blue dye extravasation, absorbance at 620 nm)",Balb/c mice,reduced IgE-dependent passive cutaneous anaphylaxis
same,IgE-dependent JNK phosphorylation in mast cells,[1],reduced IgE-dependent JNK phosphorylation in mast cells
